Measured values from patent US20030088057A1, “PEPTIDE SUBSTRATES PHOSPHORYLATED BY P21-ACTIVAGED PROTEIN KINASE STATEMENT REGARDING FEDERALLY SPONSORED REASEARCH OR DEVELOPMENT” (priority 1998, published 2003).
“Also recorded” adds a separate entry of the source. Where two headings read alike, the source gives them in different places. No end group written: not given here.

Key:
PKC = test: Rates of phosphorylation of synthetic peptides by PKC; format: biochemical, bovine; settings: for 32P incorporated: PKC (3.4 units), with Ca2+ and phospholipids, 0.14 mM ATP; for 32P incorporated, %: PKC, AKRASAA taken as 100%
Source text: (§1) A. Materials. γ-PAK was purified from rabbit reticulocytes to apparent homogeneity by chromatography on DEAE-cellulose, SP-Sepharose, protamine agarose, and FPLC on Mono S and Mono Q. Histone I (type IIIS), mixed histone (type IIAS), trypsin (L-1-tosylamido-2-phenylethyl chloromethyl ketone treated), soybean trypsin inhibitor, bovine serum albumin (fatty acid free), and myelin basic protein were purchased from Sigma. Purified histones 2B and 4 were purchased from Boehringer-Mannheim. Myosin light chain from rabbit skeletal muscle was a gift from Dr. James Stull, University of Texas Southwestern Medical Center, Dallas, Tex.; rat prolactin was provided by Dr. Ameae Walker, University of California, Riverside, Calif.; and the purified catalytic subunit of cAMP-dependent protein kinase from bovine heart was a gift from Dr. William H. Fletcher, J. L. Pettis Memorial V. A. Hospital, Loma Linda, Calif. Protein kinase C was purified from bovine brain according to the procedure of Walton et al. [Walton, G. M., et al., Anal Biochem., 161:425-437 (1987)], with modifications [Venema, R. C., et al., J. Biol. Chem., 266:5298-5302 (1991)]. The clone for GST-Cdc42 was generously provided by Dr. Channing Der, University of North Carolina, Chapel Hill, N.C. Cellulose thin-layer chromatography sheets were from Kodak.
(§2) Reactions with PKA (10.5 units) were carried out under the same conditions as with γ-PAK except that 0.14 mM ATP was used. Reactions with PKC (3.4 units) were performed as with PKA, with the addition of 0.4 mM CaCl2, phosphatidylinositol (15 μg/mL), phosphatidylserine (15 μg/ mL), and 1,2-diolein (3 μg/mL), as described [Tuazon, P. T., et al., (1989), supra]. A unit of PKA or PKC is defined as the amount of enzyme that incorporates 1 pmol of phosphate/min at 30° C. into histone IIAS or histone 1, respectively.
PKA and PKC are known to require basic amino acids on the N-terminal side of the phosphorylatable serine/ threonine. To distinguish their substrate specificities from that of γ-PAK, the relative rates of phosphorylation were determined with the synthetic peptide substrates using the conditions for γ-PAK, with the addition of Ca^2+ and phospholipids for PKC. The rates shown in Table 5 are calculated with equivalent units of enzyme; the rate of phosphorylation of the peptide AKRASAA (SEQ ID NO:6) is taken as 100% for all three enzymes. As would be expected, PKA preferentially phosphorylated the peptides that contained RR or RK at the −3 and −2 positions and with […] residues or proline at the −4 and −1 positions inhibitory. PKC recognized SKR>RKS>KKS. The most notable difference between γ-PAK and PKA or PKC is the effect of acidic residues on the susceptibility of the peptide to be phosphorylated. An acidic residue in the −1 or −4 position was beneficial for γ-PAK but was detrimental for both PKA and PKC (Table 5). […] In addition, γ-PAK could not tolerate an arginine in the −3 position when lysine was in the −2 position.

PKA = molecular target: T1, PKA (Bos taurus, UniProt P00517); test: Rates of phosphorylation of synthetic peptides by PKA; format: biochemical, bovine; settings: for 32P incorporated: PKA (10.5 units), 0.14 mM ATP; for 32P incorporated, %: PKA, AKRASAA taken as 100%
T1 construct: the purified catalytic subunit of cAMP-dependent protein kinase from bovine heart was a gift; from tissue; host or cells: bovine heart (gift from Dr. William H. Fletcher)
Source text: as §1, with “Myosin light chain from rabbit skeletal muscle was a gift from Dr. James Stull, University of Texas Southwestern Medical Center, Dallas, Tex.; rat prolactin was provided by Dr. Ameae Walker, University of California, Riverside, Calif.; and the purified catalytic subunit of cAMP-dependent protein kinase from bovine heart was a gift from Dr. William H. Fletcher, J. L. Pettis Memorial V. A. Hospital, Loma Linda, Calif.” left out
as §2
PKA and PKC are known to require basic amino acids on the N-terminal side of the phosphorylatable serine/ threonine. To distinguish their substrate specificities from that of γ-PAK, the relative rates of phosphorylation were determined with the synthetic peptide substrates using the conditions for γ-PAK, with the addition of Ca^2+ and phospholipids for PKC.

γ-PAK [1] = test: Rates of phosphorylation of synthetic peptides by γ-PAK; format: biochemical, rabbit; settings: for substrate for γ-PAK (in words): synthetic peptides; for 32P incorporated, %: AKRASAA taken as 100%; for rate of phosphorylation compared to AKRASAA: relative to AKRASAA
Source text: as §1
(§3) D. Phosphorylation Assays. Phosphorylation of protein substrates was carried out in 35 μL reaction mixtures containing 20 mM Tris-HCl, pH 7.4, 10 mM MgCl2, 30 mM 2-mercaptoethanol, 0.2 mM ATP (specific activity =1000 cpm/pmol), 2 μg of protein substrate, and 20 units of active γ-PAK (an enzyme unit is defined as the amount of enzyme that incorporates 1 pmol of phosphate into histone IIAS/ min at 30°. Under these conditions, phosphate incorporation was linear and initial rates of phosphorylation were measured. After incubation at 30° C. for 15 min, reactions were terminated by the addition of 5 μL of 100 mM nonlabeled ATP and sample buffer for gel electrophoresis [Hathaway, G. M., et al., Methods Enzymol., 60:495-511 (1979)]. Reaction mixtures were subjected to SDS-PAGE on 15% polyacrylamide gels followed by autoradiography. Phosphorylation was quantified by excising the protein band and counting the incorporated ^32P in a liquid scintillation counter. The specific activity of γ-PAK was 400 pmol min^−1 μg^−1 as reported previously using 0.2 mM ATP and 1 mg/mL mixed histone as substrate [Rooney, R. D., et al., (1996), supra].
(§4) Assays with peptides (I mM) were carried out with γ-PAK (1.6-5.6 units) in 25 μL reaction mixtures incubated for 30 min at 30° C. under conditions described above, except that 0.4 mg/mL of bovine serum albumin was added and the specific activity of ATP was 300-2000 cpm/pmol. Reactions were terminated with 5 μL of 100 mM ATP, and the amount of ^32p incorporated was quantitated by precipitation of 20 μL aliquots on P81 phosphocellulose paper with 75 mM H3PO4 as described previously [Bensen, E. S., et al., Biochim. Biophys. Acta, 1292:249-258 (1996)]. Peptides containing only one basic amino acid were analyzed by thin-layer electrophoresis on cellulose sheets for 2 h at 600 V with pyridine/acetic acid/water (10:100:890), pH 3.5, as solvent, as described previously [Bensen, E. S., et al., supra]. Activation of γ-PAK by autophosphorylation in the presence of Cdc42(GTPγS) was performed as previously described [Jakobi, R., et al., supra]. γ-PAK was also activated by limited digestion with trypsin as described previously [Rooney, R. D., et al., (1996), supra].
Target sequence in this assay (Q29502 249-500 limits assumed): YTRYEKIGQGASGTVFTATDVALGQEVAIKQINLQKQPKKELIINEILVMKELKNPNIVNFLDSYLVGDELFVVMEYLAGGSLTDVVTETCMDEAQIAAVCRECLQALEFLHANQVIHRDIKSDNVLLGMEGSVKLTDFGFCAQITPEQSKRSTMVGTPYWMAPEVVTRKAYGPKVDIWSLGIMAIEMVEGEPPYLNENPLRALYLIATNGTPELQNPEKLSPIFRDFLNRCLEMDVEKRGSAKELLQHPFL

γ-PAK [2] = test: Kinetic parameters (Km, Vmax) for phosphorylation of synthetic peptides by γ-PAK; format: biochemical, rabbit; settings: for Km: read-out: Km
Protocol: as §4
Target sequence in this assay (Q29502 249-500 limits assumed): as above

γ-PAK [3] = molecular target: T2, γ-PAK (Oryctolagus cuniculus, UniProt Q29502); test: Phosphorylation of heptapeptides by Cdc42-activated γ-PAK with ATP(Mg) and ATP(Mn); format: biochemical, rabbit; settings: γ-PAK 2.5 units, Cdc42(GTPγS)-activated; 10 mM MgCl2 or 6 mM MnCl2
T2 construct: γ-PAK was purified from rabbit reticulocytes to apparent homogeneity; from tissue; host or cells: rabbit reticulocytes (γ-PAK)
T2 sequence (Q29502 2-524 limits assumed): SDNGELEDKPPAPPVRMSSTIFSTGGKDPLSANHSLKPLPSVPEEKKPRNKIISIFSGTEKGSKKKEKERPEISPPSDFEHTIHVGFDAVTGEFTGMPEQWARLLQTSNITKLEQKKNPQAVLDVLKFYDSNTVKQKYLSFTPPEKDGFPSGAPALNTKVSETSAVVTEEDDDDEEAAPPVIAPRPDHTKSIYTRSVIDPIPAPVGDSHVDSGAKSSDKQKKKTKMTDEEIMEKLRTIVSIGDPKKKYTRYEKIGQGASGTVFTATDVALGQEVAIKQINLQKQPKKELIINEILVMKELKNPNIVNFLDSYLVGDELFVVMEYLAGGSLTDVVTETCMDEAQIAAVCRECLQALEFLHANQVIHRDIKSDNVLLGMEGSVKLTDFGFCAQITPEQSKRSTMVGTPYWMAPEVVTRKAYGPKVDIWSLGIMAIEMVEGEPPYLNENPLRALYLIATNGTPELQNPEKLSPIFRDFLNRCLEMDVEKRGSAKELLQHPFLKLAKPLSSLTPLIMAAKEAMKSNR
Protocol: Synthetic heptapeptides were used to examine the activity of γ-PAK with manganese and magnesium. The peptides were incubated with γ-PAK (2.5 units), activated by autophosphorylation in the presence of Cdc42(GTPγS) and 10 mM MgCl2 or 6 mM MnCl2 as described under Experimental Procedures.

γ-PAK [4] = test: Phosphorylation of protein substrates by γ-PAK; format: biochemical, rabbit; settings: for substrate for γ-PAK (in words): proteins
Protocol: as §3
Target sequence in this assay (Q29502 249-524 limits assumed): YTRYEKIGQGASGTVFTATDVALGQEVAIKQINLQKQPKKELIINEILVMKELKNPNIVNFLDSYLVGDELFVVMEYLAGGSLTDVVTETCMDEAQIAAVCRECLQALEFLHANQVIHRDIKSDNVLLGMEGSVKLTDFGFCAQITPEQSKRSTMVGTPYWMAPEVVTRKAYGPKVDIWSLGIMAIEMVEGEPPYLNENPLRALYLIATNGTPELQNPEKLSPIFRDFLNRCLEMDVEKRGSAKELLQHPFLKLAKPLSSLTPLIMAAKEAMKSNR
A number of proteins were examined as substrates, and their relative rates of phosphorylation were compared (Table 6).

[5] = Cdc42(GTPγS)-activated γ-PAK, peptide 1 mM, KKRKSAA = 100
[6] = proteolytically (trypsin) activated γ-PAK, peptide 1 mM, compared to KKRKSAA = 100
[7] = proteolytically activated γ-PAK (5.6 units), peptide 1 mM, 30 min at 30° C.
[8] = γ-PAK, calculated with equivalent units of enzyme
[9] = Table 2, influence of basic amino acids, γ-PAK 1.6 units, ATP 0.2 mM
[10] = Table 3, influence of acidic amino acids
[11] = Table 4, influence of proline and glycine

Row | 32P incorporated (PKA) [pmol/unit] | Vmax (γ-PAK [2]; [10]) [pmol/min] | Km (γ-PAK [2]; [10]) [µM] | 32P incorporated, % (PKA) [%] | overall rate of phosphorylation (Vmax/Km) compared to AKRASAA (γ-PAK [2]) [fold] | Substance | 32P incorporated (PKC) [pmol/unit] | 32P incorporated, % (PKC) [%] | rel rate (%) (γ-PAK [1]; [5]) | rel rate (%) (γ-PAK [1]; [6]) | 32P incorporated (γ-PAK [1]; [7]) [pmol/min/µg] | substrate for γ-PAK (in words) (γ-PAK [1]) | 32P incorporated, % (γ-PAK [1]; γ-PAK) [%] | 32P incorporated (γ-PAK [1]; [8]) [pmol/unit] | substrate for γ-PAK (in words) (γ-PAK [4]) | also measured
1 | 5.4 |  |  |  |  | RKKKSAA (RKKKSAA-NH2) [synthetic peptide with an amide C-terminal group] | 3.1 | 94 | 3 | 0 | 0 | poor substrates | 0 | 0.1 |  | 
2 | 4.8 | 11.04 | 460 | 100 |  | AKRASAA (AKRASAA-NH2) [synthetic peptide with an amide C-terminal group] | 3.0 | 100 | 189 | 141 | 426 |  | 100 | 26.8 |  | Vmax (γ-PAK [2]; [9]): 1.04 pmol/min; Km (γ-PAK [2]; [9]): 460 µM; Vmax (γ-PAK [2]; [11]): 1.04 pmol/min; Km (γ-PAK [2]; [11]): 460 µM
3 | 6.9 |  |  |  | 2 | PKRASAA (PKRASAA-NH2) [synthetic peptide with an amide C-terminal group] | 8.7 | 264 | 184 | 209 | 636 |  | 151 | 40.5 |  | decrease of Km compared to AKRASAA (γ-PAK [2]): ≈ 2 fold; increase of Vmax compared to AKRASAA (γ-PAK [2]): no effect; Vmax (γ-PAK [2]; [11]): 1.10 pmol/min; Km (γ-PAK [2]; [11]): 240 µM
4 | 1.7 | 2.48 | 890 | 4 | 1.3 | EKRASAA (EKRASAA-NH2) [synthetic peptide with an amide C-terminal group] | 0.1 | 3 | 151 | 160 | 484 |  | 113 | 30.2 |  | increase of Km compared to AKRASAA (γ-PAK [2]): 2 fold; Vmax (γ-PAK [2]; text summary b32): 2.48 pmol/min; rate of phosphorylation compared to AKRASAA (γ-PAK [1]; γ-PAK): 113%
5 | 3.6 | 2.22 | 1420 | 75 | 0.7 | AKRASEA (AKRASEA-NH2) [synthetic peptide with an amide C-terminal group] | 0.2 | 6 | 88 | 108 | 326 |  | 68 | 18.3 |  | increase of Km compared to AKRASAA (γ-PAK [2]): ~3 fold; rate of phosphorylation compared to AKRASAA (γ-PAK [1]; γ-PAK): 71%

Continued, substance first:

Row | Substance | 32P incorporated (PKA) [pmol/unit] | Vmax (γ-PAK [2]; [10]) [pmol/min] | Km (γ-PAK [2]; [10]) [µM] | 32P incorporated, % (PKA) [%] | overall rate of phosphorylation (Vmax/Km) compared to AKRASAA (γ-PAK [2]) [fold] | 32P incorporated (PKC) [pmol/unit] | 32P incorporated, % (PKC) [%] | rel rate (%) (γ-PAK [1]; [5]) | rel rate (%) (γ-PAK [1]; [6]) | 32P incorporated (γ-PAK [1]; [7]) [pmol/min/µg] | substrate for γ-PAK (in words) (γ-PAK [1]) | 32P incorporated, % (γ-PAK [1]; γ-PAK) [%] | 32P incorporated (γ-PAK [1]; [8]) [pmol/unit] | substrate for γ-PAK (in words) (γ-PAK [4]) | also measured
6 | AKAASAA (AKAASAA-NH2) [synthetic peptide with an amide C-terminal group] |  |  |  |  |  |  |  | 3 | 2 | 5 | did not serve as substrate; also recorded: could not be phosphorylated |  |  |  | Km (γ-PAK [2]; [9]): > 5000 µM; phosphorylation using ATP(Mg) or ATP(Mn) (in words) (γ-PAK [3]): not phosphorylated
7 | casein |  |  |  |  |  |  |  |  |  |  |  |  |  | not substrates | 
8 | protamine |  |  |  |  |  |  |  |  |  |  |  |  |  | not a good substrate; also recorded: did not serve as substrates | 32P incorporated (γ-PAK [4]; 2 μg protein substrate, 20 units active γ-PAK, 15 min at 30° C.): 0 pmol; substrate for γ-PAK (in words) (γ-PAK [4]; listed as Protamine): not substrates; rel rate (γ-PAK [4]; relative to histone 2B = 100): 0%
9 | AKKASAA (AKKASAA-NH2) [synthetic peptide with an amide C-terminal group] |  |  |  |  |  |  |  |  |  |  | poor substrates |  |  |  | phosphorylation using ATP(Mg) or ATP(Mn) (in words) (γ-PAK [3]): not phosphorylated
10 | cdc42: small G protein; not a substrate for γ-PAK (data not shown) |  |  |  |  |  |  |  |  |  |  |  |  |  | not substrates | 
